According to US6887661B1, “Recombinant bHLH-PAS/JHR polypeptide and its use to screen potential insecticides” (American Cyanamid Company, priority 1997, dated 2005):

Assays:
[1] = test system: Met mutant Drosophila flies; details: cited from earlier work; for resistance to topical application: Met gene mutation
[2] = test system: JH cytosolic binding protein; details: cited from earlier work
GAL4-AhR construct = details: yeast cells; construct constitutively active without ligand; cited from earlier work
[3] = test system: DNA BD of the glucocorticoid receptor fused to the AhR; details: CHO mammalian cells; cited from earlier work
[4] = test system: Met^3 flies transformed with genomic fragments; assay: Methoprene resistance test of progeny of Met^3 transformants (rescue of Met phenotype); format: in vivo, Drosophila; details: three diagnostic amounts of methoprene
Protocol: P-element mediated germline transformation was carried out with DNA fragments isolated from phage clones derived from a wild-type genomic library. Genomic fragments were isolated following restriction enzyme digestions of phage obtained from the iso-i strain genomic library. (Tamkun et al. Proc. Natl. Acad. Sci. USA 81:5140 (1984)). Fragments were either subcloned into Bluescript (Stratagene Co., Ca.), then excised with an EcoRI-NotI double digest and subcloned into the pCaSpeR 4 transformation vector (Thummel et al. Drosophila Inform. Serv. 71:150 (1992)), or were subcloned directly into the pCaSpeR 4 vector. Purified plasmids together with pp25.1wc transformation “helper” DNA in a ratio of 2-3:1 were injected into dechorionated ywMet^3 embryos as described. (A. Spradling in Drosophila—A Practical Approach (D. B. Roberts, Ed. IRL, Oxford, 1986, page 175). Go progeny were individually crossed with y w Met^3, and transformants recognized by restoration of eye color ranging from light orange to red. For each DNA fragment, 3-5 transformants from separate Go females were recovered and their progeny tested for methoprene resistance.
Progeny of transformants were tested on three diagnostic amounts of methoprene as described in Wilson, Arch. Insect Biochem. Physiol. 32:641 (1996)). […]

Drosophila = details: JH analog insecticide; cited from earlier work

COC(=O)/C=C(\C)CC/C=C(\C)CC[C@H]1OC1(C)C [JH III, [R-(E,E)]-9-(3,3-dimethyloxiranyl)-3,7-dimethyl-2,6-nonadienoic acid methyl ester]
resistance to topical application [1]: resistance
binding to cytosolic juvenile hormone-binding protein ([2]; Drosophila melanogaster cytosolic protein): saturable, high-affinity binding
lower binding affinity of JH cytosolic binding protein from Met flies than from Met+ flies ([2]; Met flies versus Met+ flies): 10 fold

COC(=O)/C=C(\C)CC[C@@H]1O[C@@]1(C)CC[C@H]1OC1(C)C [JH bisepoxide]
resistance to topical application [1]: resistance

Clc1cc2c(cc1Cl)Oc1cc(Cl)c(Cl)cc1O2 [dioxin]
transactivation of LacZ reporter gene by GAL4-AhR construct (GAL4-AhR construct): enhanced transactivation
expression of reporter gene linked to a glucocorticoid response element [3]: induced expression of a reporter gene

CCOC(=O)NCCOc1ccc(Oc2ccccc2)cc1 [fenoxycarb]
resistance to topical application [1]: resistance

COC(C)(C)CCC[C@H](C)C/C=C/C(C)=C/C(=O)OC(C)C [methoprene, [E,E]-1-methoxy-3,7,11-trimethyl-2,4-dodecadienoic acid 1-methylethyl ester]
level of methoprene resistance compared with Met^3 ([4]; Met^3 transformants with fragments St-X and K-H): undiminished
methoprene resistance after transformation ([4]; Met^3 transformed with the 6.234 Kb St-H fragment): resistance was lost
resistance to both the toxic and morphogenetic effects ([1]; Met mutant versus wild-type flies): ≤ 100 fold
resistance to both the toxic and morphogenetic effects conferred by Met^A3 and Met^K17 alleles ([1]; P-element alleles Met^A3 and Met^K17): conferred resistance
toxicity to Drosophila (Drosophila): high toxicity

CC(COc1ccc(Oc2ccccc2)cc1)Oc1ccccn1 (stereo not shown) [pyriproxyfen]
resistance to topical application [1]: resistance
